Source: patent US20170072012A1, “USE OF GSMTX4 TO REDUCE ISCHEMIA REPERFUSION INJURY” (priority 2014, published 2017)

Tests used:
[1] = test system: I/R induced arrhythmias in mouse heart; experiment: Heart rhythm analysis (ECG) during reperfusion, I/R induced arrhythmia; format: in vivo, C57B1/6J mice; conditions: 0.4 mg/kg IV 5 min before reperfusion; vehicle 14.9±4.5; not significantly different
Method: During reperfusion we continuously recorded ECGs, from which mean heart rate, PR, QRS, and QT intervals were derived for each animal. We evaluated the incidence of arrhythmias by counting the incidences of arrhythmias including ventricular and supraventricular premature beats by summing the number of episodes based on limb lead recordings for 15 min after reperfusion. Ventricular premature beats are considered more severe. Each group contained 5 to 7 independent experiments (vehicle n=7, verapamil n=6, GsMTx4-D 0.1mg/kg n=5, 1 mg/kg n=6 and 10 mg/kg n=5).
Heart rate and rhythm were monitored by ECG to confirm the hallmark ischemic ST-segment elevation during coronary occlusion, and the gradually increasing inversion of the T-wave during reperfusion (FIG. 4A). Since generation of arrhythmias is a good indicator of the level of I/R damage, we counted ventricular and supraventricular premature beats occurring within 15 min of reperfusion (FIG. 4B). No ventricular tachycardia was observed during 20 min ischemia and 15 min reperfusion in the mouse heart. […] Considering that ventricular premature beats are indicative of more severe damage, the incidence of this specific arrhythmia was analyzed separately (FIG. 4 D). […] There was no difference in mean heart rate before ischemia (FIG. 4E). […] There was no difference in PR, QRS or QT intervals after treatment in all groups (data not shown).

[2] = test system: ischemic reperfusion injury in mouse heart; format: in vivo, C57B1/6J mice; conditions: 0.4 mg/kg tail vein 5 min before reperfusion; 4 h reperfusion; vehicle 16.5±1.2%; not statistically significant
Method: Acute GsMTx4-D treatment: All animal protocols in this study were approved by the Institutional Animal Care and Use Committee of the University at Buffalo-State University of New York. C57B1/6J mice were anesthetized with 80 mg/kg of sodium pentobarbital (Sigma, St. Louis, Mo.) via intraperitoneal injection (IP), intubated and ventilated with a respirator (Harvard apparatus, Holliston, Mass., USA) 17. Upon absence of a pedal reflex, surgery was performed under a stereomicroscope. Core body temperature was maintained at 37° C. with a heating pad. After a left lateral thoracotomy, the left anterior descending coronary artery (LAD) was occluded just underneath the left atrium for 20 min with an 8-0 nylon suture. […] A small piece of gauze was used to prevent arterial injury. After 20 min the ligature was removed and the tissue was reperfused for up to 4 h before euthanizing. Three different doses of GsMTx4-D (0.1, 1, 10 mg/kg), verapamil (0.4 mg/kg) or vehicle (saline 50 μL) were administered via tail vein injection 5 min before reperfusion (during induced ischemia). ECGs confirmed the hallmark ischemic ST segment elevation during coronary occlusion (AD Instruments, Colorado Springs, CO, USA). Each group included 5 independent experiments. At the conclusion of the study, mice were euthanized by IP injection of 270 mg/kg pentobarbital. GsMTx4-D pretreatment: To evaluate the effect of GsMTx4-D pretreatment, GsMTx4-D (50 mg/kg) or vehicle (saline 50 μL) were administered via IP injection once daily for 2 days prior to surgery. Ischemia was then elicited with the same 20 min coronary occlusion followed by 24 h reperfusion. Following reperfusion, the chest was closed in layers. A drop of lidocaine was put on the suture site and the mouse was slowly weaned off the ventilator when they resumed spontaneous breathing. The mouse was returned to its cage and kept warm and medicated for pain (buprenorphine). Each group included 5 independent experiments.
To measure infarct size, hearts were harvested and excised for dual staining at the conclusion of reperfusion. The non-necrotic tissue in the ischemic region was stained red with 2,3,5- triphenyltetrazolium (TTC) and non-ischemic regions were stained blue with Evans blue. The hearts were fixed and sectioned into 1 mm slices, photographed with a Lexica MZ95 microscope and analyzed with NIH ImageJ software (http://imagej.nih.gov/ij/) 19. The infarct size was calculated as the ratio of the percentage of myocardial necrosis to the ischemic Area At Risk (AAR).
To test whether GsMTx4-D protected the heart against reperfusion injury, we first tested three different doses of the peptide. The positive control was verapamil, a voltage-gated calcium channel inhibitor with established cardioprotective effects on IRI. C57B1/6 mice were subjected to 20 min occlusion of the LAD followed by 4 hours of reperfusion. Three different concentrations of GsMTx4-D (0.1, 1 and 10 mg/kg), verapamil (0.4 mg/kg), or vehicle (saline) were administered through tail vein injection 5 min before reperfusion. […] At the conclusion of reperfusion, the hearts were stained with TTC and Evans Blue (FIG. 2A). […] The verapamil group also had lower infarction size (14.0±0.4%), but the difference wasn't statistically significant. […] To evaluate whether pretreatment with GsMTx4-D could also protect the heart from I/R injury, GsMTx4-D (50 mg/kg) or vehicle (saline 50 μL) were administered daily via IP injection, for 2 days prior to I/R surgery. As before, ischemia was induced from 20 min LAD occlusion, but reperfusion was allowed to continue for 24 hrs. The chest was closed in layers, and animals were weaned off the ventilator when they resumed spontaneous breathing. […] The ratios of AAR to total myocardial area between the two groups were equal as determined by TTC and Evans Blue staining (FIG. 3A and B). […]

In the case of COc1ccc(CCN(C)CCCC(C#N)(c2ccc(OC)c(OC)c2)C(C)C)cc1OC (centres unmarked) [verapamil, reference compound], the “total incidence of arrhythmias (ventricular and supraventricular premature beats)” value [1] is reported as 5.7±1.2 incidence/15 min reperfusion and the “infarction size (infarct area / AAR)” value [2] is reported as 14.0±0.4%.
